Source: US7563864B2, “Prolyl endopeptidase mediated destruction of T cell epitopes in whole gluten” (Celiac Sprue Research Foundation, priority 2004, dated 2009)

What was measured:
[1] = Chymotrypsin activity assay; type: biochemical; conditions: standard chromogenic assay; pH 7.8, 25° C.
Procedure: Chymotrypsin: 750 μL 80 mM Tris-HCl, 100 mM CaCl2, pH 7.8 and 700 μL 1.07 mM BTEE (in Water/MeOH 1:1) were mixed and incubated at room temperature for 10′. 5 μL Chymotrypsin (1 mg/ml) were added and the absorption at 256 nm was recorded for 2′, every 10″. One unit hydrolyzes 1 μmol of BTEE per min at pH 7.8 and 25° C. Extinction coefficient 0.964 cm^2/μmol at 256 nm. 1 BTEE unit=29.55 USP units.

[2] = Elastase activity assay; type: biochemical; conditions: standard chromogenic assay; pH 8.0, 25° C.
Procedure: Elastase: 935 μL 0.1 M Tris (pH 8.0) and 65 μL of Succinyl-Ala3-p-Nitro anilide (4.4 mM in 0.1 M Tris, pH 8.0) were mixed and incubated at room temperature for 10′. 5 μL Elastase (0.2 mg/ml) were added and the absorption at 410 nm was recorded for 2′, every 10″. One unit hydrolyzes 1 μmol of Succinyl-Ala3-p-Nitro anilide per min at pH 8.0 and 25° C. Extinction coefficient 8.8 cm^2/μmol at 410 nm. […].

[3] = tested on: denatured hemoglobin substrate; experiment: Pepsin activity assay; type: biochemical; conditions: standard chromogenic assay; 37° C.
Procedure: Activity assays—Pepsin: 300 μL 2.5% Hemoglobin and 75 μL 0.3 M HCl were mixed and incubated for 10′ at 37° C., then added to 75 μL pepsin solution (0.1 mg/ml in 0.01 M HCl, pH=2.0). The samples were incubated for 0′, 10′ and 20′ at 37° C. (3 samples), and the reaction was stopped by addition of 750 μL 5% Trichloroacetic acid (TCA), and incubated 5′ at 37° C. For the 0′ samples, the TCA was added before the hemoglobin. Samples were centrifuged for 10′ at 13400×g. The absorption was recorded at 280 nm. One unit renders TCA soluble absorption of 0.001 at 280 nm per min at 37° C. from a denatured hemoglobin substrate.

[4] = tested on: intestinal T cell line 496.1.2; experiment: T cell proliferation assay, polyclonal T cell line 496.1.2; type: cell-based, human; set-up: key: −: no response; Stimulatory index (SI; T + APC + TG2-treated peptide divided by T + APC) of 3-10; ++: SI above 10; conditions: DQ2+ APC, 5 μM TG2-treated peptide, 3H thymidine incorporation
Excerpt: (§1) T cell assays—The generation of polyclonal gluten-specific T cell lines derived from ex vivo gluten challenged small intestinal biopsy specimens of adult Celiac Sprue patients have been described elsewhere. For this study 14 different intestinal T cell lines derived from 13 DQ2+celiac patients were selected based on two basic criteria; effective recognition of TG2-treated digests of gluten and significant responses to at least two different gluten epitopes (Table 2). The generation of intestinal T cell clones and the epitope specificity of these clones, except TCC 387.3, has been described elsewhere (10). The TCC 387.3 recognizes a TG2-dependent epitope, defined as γ-VI that is contained within residues 62-72 (PQQPFPQQPQQ) of recombinant γ-5 gliadin. The freeze-dried, proteolyzed gluten samples were dissolved in PBS with 2 mM CaCl2 and treated with 150 μg/ml human recombinant TG2 (14) or, in some experiments 200 μg/ml guinea pig transglutaminase (Sigma T-5398), for 2 hours at 37° C. The TG2-treated samples were incubated overnight in triplicates on U-bottomed 96 well plates with 75 000 cells per well of DQ2 homozygous, irradiated (75 Gy) EBV-transformed B-lymphoblastoid cell lines in a volume of 100 μl 15% pooled, inactivated human serum and RPMI1640. After the incubation 50 μl of freshly thawed T cells (1×10^6 cells/ml) were added to each well. The proliferation in the wells was evaluated by ^3H thymidine incorporation from 48-72 hours after the addition of the T cells.

[5] = tested on: intestinal T cell line 488.3.1; experiment: T cell proliferation assay, polyclonal T cell line 488.3.1; type: cell-based, human; set-up: key: −: no response; Stimulatory index (SI; T + APC + TG2-treated peptide divided by T + APC) of 3-10; ++: SI above 10; conditions: DQ2+ APC, 5 μM TG2-treated peptide, 3H thymidine incorporation
Excerpt: as §1

[6] = tested on: intestinal T cell line 437.1.3; experiment: T cell proliferation assay, polyclonal T cell line 437.1.3; type: cell-based, human; set-up: key: −: no response; Stimulatory index (SI; T + APC + TG2-treated peptide divided by T + APC) of 3-10; ++: SI above 10; conditions: DQ2+ APC, 5 μM TG2-treated peptide, 3H thymidine incorporation
Excerpt: as §1

[7] = tested on: intestinal T cell line 482.1.4; experiment: T cell proliferation assay, polyclonal T cell line 482.1.4; type: cell-based, human; set-up: key: −: no response; Stimulatory index (SI; T + APC + TG2-treated peptide divided by T + APC) of 3-10; ++: SI above 10; conditions: DQ2+ APC, 5 μM TG2-treated peptide, 3H thymidine incorporation
Excerpt: as §1

[8] = tested on: intestinal T cell line 461.1.4; experiment: T cell proliferation assay, polyclonal T cell line 461.1.4; type: cell-based, human; set-up: key: −: no response; Stimulatory index (SI; T + APC + TG2-treated peptide divided by T + APC) of 3-10; ++: SI above 10; conditions: DQ2+ APC, 5 μM TG2-treated peptide, 3H thymidine incorporation
Excerpt: as §1

[9] = tested on: intestinal T cell line 502.1.2; experiment: T cell proliferation assay, polyclonal T cell line 502.1.2; type: cell-based, human; set-up: key: −: no response; Stimulatory index (SI; T + APC + TG2-treated peptide divided by T + APC) of 3-10; ++: SI above 10; conditions: DQ2+ APC, 5 μM TG2-treated peptide, 3H thymidine incorporation
Excerpt: as §1

[10] = tested on: intestinal T cell line 437.1.1; experiment: T cell proliferation assay, polyclonal T cell line 437.1.1; type: cell-based, human; set-up: key: −: no response; Stimulatory index (SI; T + APC + TG2-treated peptide divided by T + APC) of 3-10; ++: SI above 10; conditions: DQ2+ APC, 5 μM TG2-treated peptide, 3H thymidine incorporation
Excerpt: as §1

[11] = tested on: intestinal T cell line 422.4.2; experiment: T cell proliferation assay, polyclonal T cell line 422.4.2; type: cell-based, human; set-up: key: −: no response; Stimulatory index (SI; T + APC + TG2-treated peptide divided by T + APC) of 3-10; ++: SI above 10; conditions: DQ2+ APC, 5 μM TG2-treated peptide, 3H thymidine incorporation
Excerpt: as §1

[12] = tested on: intestinal T cell line 421.1.4; experiment: T cell proliferation assay, polyclonal T cell line 421.1.4; type: cell-based, human; set-up: key: −: no response; Stimulatory index (SI; T + APC + TG2-treated peptide divided by T + APC) of 3-10; ++: SI above 10; conditions: DQ2+ APC, 5 μM TG2-treated peptide, 3H thymidine incorporation
Excerpt: as §1

[13] = tested on: intestinal T cell line 494.1.1; experiment: T cell proliferation assay, polyclonal T cell line 494.1.1; type: cell-based, human; set-up: key: −: no response; Stimulatory index (SI; T + APC + TG2-treated peptide divided by T + APC) of 3-10; ++: SI above 10; conditions: DQ2+ APC, 5 μM TG2-treated peptide, 3H thymidine incorporation
Excerpt: as §1

[14] = tested on: intestinal T cell line 446.1.3; experiment: T cell proliferation assay, polyclonal T cell line 446.1.3; type: cell-based, human; set-up: key: −: no response; Stimulatory index (SI; T + APC + TG2-treated peptide divided by T + APC) of 3-10; ++: SI above 10; conditions: DQ2+ APC, 5 μM TG2-treated peptide, 3H thymidine incorporation
Excerpt: as §1

[15] = tested on: intestinal T cell line 451.1.1; experiment: T cell proliferation assay, polyclonal T cell line 451.1.1; type: cell-based, human; set-up: key: −: no response; Stimulatory index (SI; T + APC + TG2-treated peptide divided by T + APC) of 3-10; ++: SI above 10; conditions: DQ2+ APC, 5 μM TG2-treated peptide, 3H thymidine incorporation
Excerpt: as §1

[16] = tested on: intestinal T cell line 432.2.1; experiment: T cell proliferation assay, polyclonal T cell line 432.2.1; type: cell-based, human; set-up: key: −: no response; Stimulatory index (SI; T + APC + TG2-treated peptide divided by T + APC) of 3-10; ++: SI above 10; conditions: DQ2+ APC, 5 μM TG2-treated peptide, 3H thymidine incorporation
Excerpt: as §1

[17] = tested on: intestinal T cell line 491.1.3; experiment: T cell proliferation assay, polyclonal T cell line 491.1.3; type: cell-based, human; conditions: DQ2+ APC, 5 μM TG2-treated peptide, 3H thymidine incorporation
Excerpt: as §1

[18] = Trypsin activity assay; type: biochemical; conditions: standard chromogenic assay; pH 8.2, 25° C.
Procedure: Trypsin: 870 μL 46 mM Tris-HCl, 11.5 mM CaCl2, pH 8.1 and 100 μL 10 mM N-α-p-Tosyl-L-Arginine methyl ester (TAME) were mixed and incubated at room temperature for 10′. 5 μL Trypsin (1 mg/ml) were added and the absorption at 247 nm was recorded for 2′, every 10″. Unit definition: One unit hydrolyzes 1 μmol of TAME per min at pH 8.2 and 25° C. Extinction coefficient 0.18 cm^2/μmol at 247 nm. 1 TAME unit=19.2 USP units.

Substance	Response to TG2-treated gluten peptides (stimulatory index) [4]	Response to TG2-treated gluten peptides (stimulatory index) [5]	Response to TG2-treated gluten peptides (stimulatory index) [6]	Response to TG2-treated gluten peptides (stimulatory index) [7]	Response to TG2-treated gluten peptides (stimulatory index) [8]	Response to TG2-treated gluten peptides (stimulatory index) [9]	Response to TG2-treated gluten peptides (stimulatory index) [10]	Response to TG2-treated gluten peptides (stimulatory index) [11]	Response to TG2-treated gluten peptides (stimulatory index) [12]	Response to TG2-treated gluten peptides (stimulatory index) [13]	Response to TG2-treated gluten peptides (stimulatory index) [14]	Response to TG2-treated gluten peptides (stimulatory index) [15]	Response to TG2-treated gluten peptides (stimulatory index) [16]	Response to TG2-treated gluten peptides (stimulatory index) [17]	other results
Chymotrypsin															specific activity [1]: 800 USP/mg
Elastase															specific activity [2]: 5 U/mg
Pepsin															specific activity [3]: 4000 U/mg
QPQQPQQSFPQQQRP [γ-I]	−	−	+ (Stimulatory index (SI; T + APC + TG2-treated peptide divided by T + APC) of 3-10)	−	−	−	−	−	−	−	−	−	+ (Stimulatory index (SI; T + APC + TG2-treated peptide divided by T + APC) of 3-10)	+ (Stimulatory index (SI; T + APC + TG2-treated peptide divided by T + APC) of 3-10)	
QQxSQPQxPQQQQxPQQPQQF [Glu-5]	−	−	−	−	−	−	−	−	−	−	+ (Stimulatory index (SI; T + APC + TG2-treated peptide divided by T + APC) of 3-10)	−	−	+ (Stimulatory index (SI; T + APC + TG2-treated peptide divided by T + APC) of 3-10)	
Trypsin															specific activity [18]: 2000 USP/mg
